From ChEMBL document CHEMBL1122769, “Mesoionic xanthine analogues: antagonists of adenosine receptors” (J Med Chem, 1984)

Columns and labels:
[1] = target: T1, Adenosine receptor A1 (Rattus norvegicus, UniProt P25099); assay: Antagonism of adenosine A1 receptor assessed from the ability to inhibit binding of [3H]cyclohexyladenosine to rat cerebral cortical membranes; type: cell membranes, Membrane
T1 sequence (P25099 whole entry): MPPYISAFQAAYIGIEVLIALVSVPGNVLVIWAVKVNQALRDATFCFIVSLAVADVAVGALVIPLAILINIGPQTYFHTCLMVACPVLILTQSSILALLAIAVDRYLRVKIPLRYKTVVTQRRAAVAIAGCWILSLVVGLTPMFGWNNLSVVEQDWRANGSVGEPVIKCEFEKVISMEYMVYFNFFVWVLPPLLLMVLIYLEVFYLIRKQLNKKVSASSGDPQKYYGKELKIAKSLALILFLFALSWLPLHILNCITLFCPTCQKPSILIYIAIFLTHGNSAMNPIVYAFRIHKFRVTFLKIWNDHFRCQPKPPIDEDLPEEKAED

[2] = organism: Cavia porcellus; assay: Ability to inhibit 2-chloroadenosine (15 uM)-elicited accumulations of cyclic AMP in guinea pig cerebral cortical slices

| SMILES | IC50 [1] [µM] | IC50 [2] [µM] |
| --- | --- | --- |
| O=c1c2[nH]cnc2n(Cc2ccccc2)c(=O)n1Cc1ccccc1 | 7 | 35 |
| CCN1C(=O)C(C)C(=O)N2N=CSC12 (configuration not stated) | 60 | > 250 |
| O=C1C(Cc2ccccc2)C(=O)N(CC2CC2)C2SC=CN12 (configuration not stated) | 160 | 200 |
| CCCC1C(=O)N(CC(C)C)C2Sc3ccccc3N2C1=O (configuration not stated) | 30 | 20 |
| CCC1C(=O)N(CC(C)C)C2Sc3ccccc3N2C1=O (configuration not stated) | 41 | 15 |
| CCCCCN1C(=O)C(C)C(=O)N2N=CSC12 (configuration not stated) | 120 | > 250 |
| Cn1c(=O)c2nc(-c3ccccc3)[nH]c2n(C)c1=O [8-PHENYL THEOPHYLLINE] |  | 1.65 |
| CCC1C(=O)N2C=CSC2N(Cc2ccccc2)C1=O (configuration not stated) | 160 | 150 |
| CCC1C(=O)N2C=CSC2N(Cc2cc(OC)cc(OC)c2)C1=O (configuration not stated) | 95 | 250 |
| CCC1C(=O)N2C=CSC2N(CC2CC2)C1=O (configuration not stated) | 100 | 120 |
| CCCC1C(=O)N(C)C2N(C)C=NN2C1=O (configuration not stated) | > 250 | > 250 |
| CCC1C(=O)N(CC)C2SC(C)=NN2C1=O (configuration not stated) | 500 | > 250 |
| CCCn1c(=O)c2nc[nH]c2n(CCC)c1=O | 1.5 | 8.1 |
| CCN1C(=O)C(Cc2ccccc2)C(=O)N2N=CSC12 (configuration not stated) | 58 | > 200 |
| CCn1c(=O)c2nc[nH]c2n(CC)c1=O | 6.4 | 12 |
| CCC1C(=O)N2C=Cc3ccccc3C2N(CC)C1=O (configuration not stated) | 27 | 30 |
| CCN1C(=O)C(Cc2ccc(Cl)cc2)C(=O)N2N=CSC12 (configuration not stated) | 45 | > 250 |
| CCC1C(=O)N(CC)C2SC(c3ccccc3)=NN2C1=O (configuration not stated) | 80 | 250 |
| CCCC1C(=O)N2C=CSC2N(CCC)C1=O (configuration not stated) | 54 | 250 |
| CCN1C(=O)CC(=O)N2N=CSC12 (configuration not stated) | 110 | > 250 |
| CCC1C(=O)SC2N(C)C=CN2C1=O (configuration not stated) | 290 | > 250 |
| Cn1c(=O)c2nc[nH]c2n(C)c1=O [THEOPHYLLINE] |  | 42 |
| CCC1C(=O)N(CC)C2SC=NN2C1=O (configuration not stated) | 72 | > 250 |
| Cn1c(=O)c2c(ncn2C)n(C)c1=O [CAFFEINE] |  | 150 |
| CCC1C(=O)N2C=CSC2N(CC)C1=O (configuration not stated) | 120 | 150 |
